Data from ChEMBL document CHEMBL4800723, “Data for DCP probe BI-1942” (2021).

Columns and labels:
[1] = biological target: L-type calcium channel (dihydropyridine site), Cav1.2 alpha-1C (Rattus norvegicus, UniProt P22002); assay: CA+/DHPSI/R Eurofins SafetyScreen44 (BI); parameters: mode of action inhibitor; settings: rat brain, probe [3H](+)PN200-110, compound concentration 10 uM, read-out: % Ctrl
[2] = biological target: Cathepsin D (Homo sapiens) (UniProt P07339); assay: CATHEPSIND Eurofins SafetyScreen44 (BI); settings: Compound concentration 10.0 uM
[3] = biological target: Dipeptidyl peptidase 4 (Homo sapiens) (UniProt P27487); assay: DIPEPTIDYLPEPTIDASE Eurofins SafetyScreen44 (BI); settings: Compound concentration 10.0 uM
[4] = biological target: Angiotensin-converting enzyme 2 (Homo sapiens) (UniProt Q9BYF1); assay: ACE-2(HU) Eurofins SafetyScreen44 (BI); settings: Compound concentration 10.0 uM
[5] = biological target: Alpha-2B adrenergic receptor (Homo sapiens) (UniProt P18089); settings: Compound concentration 10.0 uM
[6] = biological target: D(1A) dopamine receptor (Homo sapiens) (UniProt P21728); settings: Compound concentration 10.0 uM
[7] = biological target: Alpha-2C adrenergic receptor (Homo sapiens) (UniProt P18825); settings: Compound concentration 10.0 uM
[8] = biological target: Mu-type opioid receptor (Homo sapiens) (UniProt P35372); assay: MU/H Eurofins SafetyScreen44 (BI); settings: Compound concentration 10.0 uM
Sequence of Mu-type opioid receptor (Homo sapiens) (P35372 whole entry): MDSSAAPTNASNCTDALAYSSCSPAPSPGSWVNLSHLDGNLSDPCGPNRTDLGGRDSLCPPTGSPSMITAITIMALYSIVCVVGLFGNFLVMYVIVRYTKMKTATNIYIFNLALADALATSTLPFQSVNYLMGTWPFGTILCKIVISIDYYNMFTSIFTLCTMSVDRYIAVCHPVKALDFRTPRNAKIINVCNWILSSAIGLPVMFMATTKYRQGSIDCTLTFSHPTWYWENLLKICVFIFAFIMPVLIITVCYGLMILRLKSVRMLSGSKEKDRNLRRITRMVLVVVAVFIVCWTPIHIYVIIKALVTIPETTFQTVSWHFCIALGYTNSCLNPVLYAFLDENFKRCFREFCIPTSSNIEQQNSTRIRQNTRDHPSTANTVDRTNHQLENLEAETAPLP

[9] = biological target: Glutamate NMDA receptor (Rattus norvegicus) (UniProt P35439+Q00959+Q00960+Q00961+Q62645+Q8VHN2+Q9R1M7); assay: NMDA/R Eurofins SafetyScreen44 (BI); assay type: protein-complex assay; settings: Compound concentration 10.0 uM
[10] = biological target: Prothrombin (Homo sapiens) (UniProt P00734); assay: THROMBIN Eurofins SafetyScreen44 (BI); settings: Compound concentration 10.0 uM
[11] = biological target: 5-hydroxytryptamine receptor 1A (Homo sapiens) (UniProt P08908); assay: 5HT1A/H Eurofins SafetyScreen44 (BI); settings: Compound concentration 10.0 uM
Sequence of 5-hydroxytryptamine receptor 1A (Homo sapiens) (P08908 whole entry): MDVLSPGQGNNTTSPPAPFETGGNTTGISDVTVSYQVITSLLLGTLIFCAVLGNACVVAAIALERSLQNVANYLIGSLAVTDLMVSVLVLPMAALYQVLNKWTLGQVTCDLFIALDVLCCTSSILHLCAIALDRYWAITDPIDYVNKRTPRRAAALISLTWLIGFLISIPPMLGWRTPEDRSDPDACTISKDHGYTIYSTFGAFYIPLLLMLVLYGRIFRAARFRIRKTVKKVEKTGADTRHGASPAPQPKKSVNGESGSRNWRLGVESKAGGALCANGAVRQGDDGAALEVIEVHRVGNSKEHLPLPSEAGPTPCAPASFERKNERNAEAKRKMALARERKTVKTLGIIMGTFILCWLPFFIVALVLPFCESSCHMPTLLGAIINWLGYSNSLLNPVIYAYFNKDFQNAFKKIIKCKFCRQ

[12] = biological target: Muscarinic acetylcholine receptor M5 (Homo sapiens) (UniProt P08912); settings: Compound concentration 10.0 uM
Sequence of Muscarinic acetylcholine receptor M5 (Homo sapiens) (P08912 whole entry): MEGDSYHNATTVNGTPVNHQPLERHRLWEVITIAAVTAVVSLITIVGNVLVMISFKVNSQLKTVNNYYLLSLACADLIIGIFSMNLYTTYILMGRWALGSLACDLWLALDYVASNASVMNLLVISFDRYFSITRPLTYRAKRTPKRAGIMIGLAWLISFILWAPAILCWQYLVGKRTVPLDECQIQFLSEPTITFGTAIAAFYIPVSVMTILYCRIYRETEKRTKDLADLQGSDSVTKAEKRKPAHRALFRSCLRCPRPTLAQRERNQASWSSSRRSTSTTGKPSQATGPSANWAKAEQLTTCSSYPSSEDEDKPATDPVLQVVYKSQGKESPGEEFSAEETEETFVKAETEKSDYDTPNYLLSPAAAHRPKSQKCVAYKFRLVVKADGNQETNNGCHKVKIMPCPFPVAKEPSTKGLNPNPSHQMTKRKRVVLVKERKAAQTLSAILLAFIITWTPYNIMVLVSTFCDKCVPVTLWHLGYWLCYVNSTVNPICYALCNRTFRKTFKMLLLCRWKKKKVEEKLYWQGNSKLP

[13] = biological target: T1, GABA-A receptor; anion channel (Rattus norvegicus) (UniProt O09028+P15431+P18506+P18508+P19969+P20236+P23574+P23576+P28471+P28473+P30191+P62813+P63079+P63138+Q91ZM7+Q9ES14); settings: Compound concentration 10.0 uM
[14] = biological target: Beta-2 adrenergic receptor (Homo sapiens) (UniProt P07550); settings: Compound concentration 10.0 uM
[15] = biological target: Sodium-dependent noradrenaline transporter (Homo sapiens) (UniProt P23975); assay: NEUP/H Eurofins SafetyScreen44 (BI); settings: Compound concentration 10.0 uM
[16] = biological target: Histamine H1 receptor (Homo sapiens) (UniProt P35367); assay: H1/PYRIL/HS Eurofins SafetyScreen44 (BI); settings: Compound concentration 10.0 uM
Sequence of Histamine H1 receptor (Homo sapiens) (P35367 whole entry): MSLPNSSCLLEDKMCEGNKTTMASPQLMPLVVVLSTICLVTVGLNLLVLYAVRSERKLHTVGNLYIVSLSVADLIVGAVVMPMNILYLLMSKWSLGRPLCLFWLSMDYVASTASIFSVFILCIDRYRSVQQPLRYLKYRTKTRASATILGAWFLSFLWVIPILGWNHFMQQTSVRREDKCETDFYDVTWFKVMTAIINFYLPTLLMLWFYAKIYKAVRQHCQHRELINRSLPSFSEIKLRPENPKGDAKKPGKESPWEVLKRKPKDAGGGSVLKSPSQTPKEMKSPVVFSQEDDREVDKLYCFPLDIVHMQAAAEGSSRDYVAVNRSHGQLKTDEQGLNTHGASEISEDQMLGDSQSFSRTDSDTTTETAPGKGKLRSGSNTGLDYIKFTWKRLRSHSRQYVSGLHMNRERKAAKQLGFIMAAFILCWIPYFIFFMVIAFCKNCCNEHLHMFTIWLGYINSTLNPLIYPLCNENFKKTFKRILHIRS

[17] = biological target: T1, GABA-A receptor; anion channel (Rattus norvegicus); settings: Compound concentration 10.0 uM; remark: listed apart in the source
[18] = biological target: 5-hydroxytryptamine receptor 6 (Homo sapiens) (UniProt P50406); settings: Compound concentration 10.0 uM
[19] = biological target: Cannabinoid receptor 1 (Homo sapiens) (UniProt P21554); assay: CB1(HU)_AGON Eurofins SafetyScreen44 (BI); settings: Rattus norvegicus; filed as agonist; Compound concentration 10.0 uM
[20] = biological target: 5-hydroxytryptamine receptor 7 (Homo sapiens) (UniProt P34969); settings: Compound concentration 10.0 uM
[21] = biological target: Tyrosine-protein kinase Lck (Homo sapiens) (UniProt P06239); assay: LCK_CE Eurofins SafetyScreen44 (BI); settings: Compound concentration 10.0 uM
Sequence of Tyrosine-protein kinase Lck (Homo sapiens) (P06239 2-509 limits assumed): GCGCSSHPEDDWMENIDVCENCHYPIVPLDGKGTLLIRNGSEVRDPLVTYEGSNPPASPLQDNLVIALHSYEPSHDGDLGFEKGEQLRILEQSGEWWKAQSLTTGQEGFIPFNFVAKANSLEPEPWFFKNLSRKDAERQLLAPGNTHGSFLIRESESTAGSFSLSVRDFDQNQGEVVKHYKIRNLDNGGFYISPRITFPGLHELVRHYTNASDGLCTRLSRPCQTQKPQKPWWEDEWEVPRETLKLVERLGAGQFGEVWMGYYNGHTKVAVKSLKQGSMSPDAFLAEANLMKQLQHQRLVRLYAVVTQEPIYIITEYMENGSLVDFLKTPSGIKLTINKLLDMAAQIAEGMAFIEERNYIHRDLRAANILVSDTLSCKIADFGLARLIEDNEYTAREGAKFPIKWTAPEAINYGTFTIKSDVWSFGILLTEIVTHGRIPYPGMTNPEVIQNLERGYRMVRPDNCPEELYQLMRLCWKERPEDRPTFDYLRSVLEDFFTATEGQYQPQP

[22] = biological target: Adenosine receptor A2a (Homo sapiens) (UniProt P29274); assay: A2A/H Eurofins SafetyScreen44 (BI); settings: filed as antagonist, Compound concentration 10.0 uM
Rattus norvegicus = species: Rattus norvegicus; assay: K+/VOLT/RA Eurofins SafetyScreen44 (BI); settings: Compound concentration 10.0 uM
[23] = biological target: Disintegrin and metalloproteinase domain-containing protein 17 (Homo sapiens) (UniProt P78536); assay: TACE Eurofins SafetyScreen44 (BI); settings: Compound concentration 10.0 uM
Sequence of Disintegrin and metalloproteinase domain-containing protein 17 (Homo sapiens) (P78536 whole entry, the tested form may be a part): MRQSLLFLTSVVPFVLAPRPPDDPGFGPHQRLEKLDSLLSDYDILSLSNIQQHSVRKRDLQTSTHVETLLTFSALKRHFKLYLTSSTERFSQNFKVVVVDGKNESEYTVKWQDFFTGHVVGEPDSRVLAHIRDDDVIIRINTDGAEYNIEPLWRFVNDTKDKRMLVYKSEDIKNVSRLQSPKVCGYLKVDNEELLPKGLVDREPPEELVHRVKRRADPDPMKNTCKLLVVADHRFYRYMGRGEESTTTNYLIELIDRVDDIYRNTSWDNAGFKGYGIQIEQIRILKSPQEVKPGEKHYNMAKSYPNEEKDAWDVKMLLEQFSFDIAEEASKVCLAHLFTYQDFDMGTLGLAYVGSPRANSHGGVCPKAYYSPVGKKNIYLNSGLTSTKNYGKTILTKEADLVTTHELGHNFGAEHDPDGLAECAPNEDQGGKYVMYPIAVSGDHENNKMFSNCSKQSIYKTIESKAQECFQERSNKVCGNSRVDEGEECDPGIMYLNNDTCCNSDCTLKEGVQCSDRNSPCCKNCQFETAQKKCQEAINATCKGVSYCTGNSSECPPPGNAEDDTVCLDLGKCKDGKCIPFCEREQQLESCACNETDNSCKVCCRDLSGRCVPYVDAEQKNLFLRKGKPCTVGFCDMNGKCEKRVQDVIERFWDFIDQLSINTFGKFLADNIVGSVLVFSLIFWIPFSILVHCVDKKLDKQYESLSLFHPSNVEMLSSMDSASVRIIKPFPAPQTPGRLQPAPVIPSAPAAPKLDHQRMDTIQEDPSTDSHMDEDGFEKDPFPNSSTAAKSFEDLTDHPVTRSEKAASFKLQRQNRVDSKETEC

[24] = biological target: Kappa-type opioid receptor (Homo sapiens, UniProt P41145); settings: Compound concentration 10.0 uM
[25] = biological target: D(3) dopamine receptor (Homo sapiens) (UniProt P35462); settings: Compound concentration 10.0 uM
[26] = biological target: Dipeptidyl peptidase 1 (Homo sapiens) (UniProt P53634); assay: CATHEPSIN_C_CE Eurofins SafetyScreen44 (BI); settings: Compound concentration 10.0 uM
Sequence of Dipeptidyl peptidase 1 (Homo sapiens) (P53634 25-134 limits assumed): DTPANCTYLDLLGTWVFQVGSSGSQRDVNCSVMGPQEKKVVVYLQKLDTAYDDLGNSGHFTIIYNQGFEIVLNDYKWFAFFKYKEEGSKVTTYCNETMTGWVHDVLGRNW
Sequence of Dipeptidyl peptidase 1 (Homo sapiens) (P53634 231-394 limits assumed): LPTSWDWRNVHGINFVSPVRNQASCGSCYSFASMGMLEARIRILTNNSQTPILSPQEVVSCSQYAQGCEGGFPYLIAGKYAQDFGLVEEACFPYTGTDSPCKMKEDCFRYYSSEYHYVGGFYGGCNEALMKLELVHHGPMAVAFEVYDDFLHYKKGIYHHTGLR
Sequence of Dipeptidyl peptidase 1 (Homo sapiens) (P53634 395-463 limits assumed): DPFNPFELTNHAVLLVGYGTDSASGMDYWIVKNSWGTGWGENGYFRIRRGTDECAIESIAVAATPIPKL

[27] = biological target: D(2) dopamine receptor (Homo sapiens) (UniProt P14416); assay: D2SH_AGON Eurofins SafetyScreen44 (BI); settings: filed as agonist, Compound concentration 10.0 uM
[28] = biological target: cGMP-inhibited 3',5'-cyclic phosphodiesterase 3A (Homo sapiens) (UniProt Q14432); assay: PDE3A Eurofins SafetyScreen44 (BI); settings: Compound concentration 10.0 uM
Sequence of cGMP-inhibited 3',5'-cyclic phosphodiesterase 3A (Homo sapiens) (Q14432 whole entry): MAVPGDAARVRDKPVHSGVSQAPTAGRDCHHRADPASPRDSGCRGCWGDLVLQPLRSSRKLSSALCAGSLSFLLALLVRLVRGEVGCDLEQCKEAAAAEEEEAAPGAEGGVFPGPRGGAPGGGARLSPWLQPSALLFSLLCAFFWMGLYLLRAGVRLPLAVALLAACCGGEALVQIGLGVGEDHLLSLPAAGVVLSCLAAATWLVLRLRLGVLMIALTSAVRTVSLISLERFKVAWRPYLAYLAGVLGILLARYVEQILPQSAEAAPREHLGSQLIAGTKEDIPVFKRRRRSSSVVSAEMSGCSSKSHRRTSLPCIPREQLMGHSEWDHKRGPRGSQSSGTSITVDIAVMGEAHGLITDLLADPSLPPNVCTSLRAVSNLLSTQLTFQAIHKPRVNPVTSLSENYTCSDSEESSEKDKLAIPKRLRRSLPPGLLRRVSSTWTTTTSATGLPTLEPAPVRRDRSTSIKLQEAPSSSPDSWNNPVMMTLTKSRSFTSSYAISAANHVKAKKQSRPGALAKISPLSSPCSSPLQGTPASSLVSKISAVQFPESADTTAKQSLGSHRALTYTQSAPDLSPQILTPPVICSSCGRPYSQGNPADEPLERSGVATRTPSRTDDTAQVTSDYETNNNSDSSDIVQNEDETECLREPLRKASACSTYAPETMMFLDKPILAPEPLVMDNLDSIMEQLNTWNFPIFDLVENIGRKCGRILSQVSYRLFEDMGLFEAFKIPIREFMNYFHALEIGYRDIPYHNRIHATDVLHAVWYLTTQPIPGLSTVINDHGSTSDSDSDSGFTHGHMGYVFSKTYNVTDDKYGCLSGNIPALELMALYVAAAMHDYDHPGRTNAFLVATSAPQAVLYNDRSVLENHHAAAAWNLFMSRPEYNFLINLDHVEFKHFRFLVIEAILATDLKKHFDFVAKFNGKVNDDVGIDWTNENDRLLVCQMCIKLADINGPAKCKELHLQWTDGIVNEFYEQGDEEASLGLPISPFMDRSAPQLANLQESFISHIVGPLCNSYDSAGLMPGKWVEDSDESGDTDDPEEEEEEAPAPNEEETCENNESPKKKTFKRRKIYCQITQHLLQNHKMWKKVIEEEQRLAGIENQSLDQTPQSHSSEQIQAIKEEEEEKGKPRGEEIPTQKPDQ

[29] = biological target: Glucocorticoid receptor (Homo sapiens) (UniProt P04150); assay: GCORTICOID/H Eurofins SafetyScreen44 (BI); settings: Compound concentration 10.0 uM
[30] = biological target: Cathepsin Z (Homo sapiens) (UniProt Q9UBR2); assay: CATHEPSINX(H) Eurofins SafetyScreen44 (BI); settings: Compound concentration 10.0 uM
Sequence of Cathepsin Z (Homo sapiens) (Q9UBR2 whole entry): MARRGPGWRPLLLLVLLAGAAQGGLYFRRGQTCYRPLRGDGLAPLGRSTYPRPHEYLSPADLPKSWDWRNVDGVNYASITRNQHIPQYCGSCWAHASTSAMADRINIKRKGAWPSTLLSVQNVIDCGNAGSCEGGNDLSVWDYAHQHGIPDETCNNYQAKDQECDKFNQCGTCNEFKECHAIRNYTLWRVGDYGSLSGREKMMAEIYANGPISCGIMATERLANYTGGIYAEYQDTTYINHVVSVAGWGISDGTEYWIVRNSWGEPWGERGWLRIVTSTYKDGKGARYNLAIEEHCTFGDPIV

[31] = biological target: Alpha-1A adrenergic receptor (Homo sapiens) (UniProt P35348); assay: ALPHA1AH_ANTAG Eurofins SafetyScreen44 (BI); settings: filed as antagonist, Compound concentration 10.0 uM
[32] = biological target: Human immunodeficiency virus type 1 protease (Human immunodeficiency virus 1) (UniProt Q72874); assay: HIV-1/H Eurofins SafetyScreen44 (BI); settings: Compound concentration 10.0 uM
[33] = biological target: Proteinase-activated receptor 1 (Homo sapiens) (UniProt P25116); assay: PAR1(H)AGON Eurofins SafetyScreen44 (BI); settings: filed as agonist, Compound concentration 10.0 uM
[34] = biological target: Neuronal acetylcholine receptor; alpha4/beta2 (Homo sapiens) (UniProt P17787+P43681); assay: N_NEURO_A4B2 Eurofins SafetyScreen44 (BI); assay type: protein-complex assay; settings: filed as agonist, Compound concentration 10.0 uM

CC[C@H](CC(=O)O)n1c(=O)c2ncccc2n(Cc2cn(C)c3cc(C)cc(C)c23)c1=O [BI-1942]
activity at 10 µM [1]: 108% (not active)
residual activity [2]: 118%
residual activity [3]: 107%
residual activity [4]: 127%
inhibition [5]: 0.56%
inhibition [6]: 20.3%
inhibition [7]: 13.8%
residual activity [8]: 96%
residual activity [9]: 113%
residual activity [10]: 102%
residual activity [11]: 79%
inhibition [12]: 8.73%
inhibition [13]: 6.86%
inhibition [14]: 10.5%
residual activity [15]: 102%
residual activity [16]: 100%
inhibition [17]: 3.5%
inhibition [18]: 12.2%
residual activity [19]: 114%
inhibition [20]: 27.2%
residual activity [21]: 103%
residual activity [22]: 98%
residual activity (Rattus norvegicus): 104%
residual activity [23]: 88%
inhibition [24]: 95.9%
inhibition [25]: 11.1%
residual activity [26]: 92%
residual activity [27]: 108%
residual activity [28]: 94%
residual activity [29]: 107%
residual activity [30]: 98%
residual activity [31]: 103%
residual activity [32]: 111%
residual activity [33]: 100%
residual activity [34]: 103%
